From ChEMBL document CHEMBL3808392, “Design, synthesis and biological evaluation of 5-fluorouracil-derived benzimidazoles as novel type of potential antimicrobial agents” (2016)
In brackets after ≈: the same amount, converted by molar mass.

What was measured:
Staphylococcus aureus [1] = assay: Antimicrobial activity against methicillin-resistant Staphylococcus aureus N315 after 24 hrs by microbroth dilution method; assay type: functional; settings: N315, 24 h
Staphylococcus aureus [2] = assay: Antimicrobial activity against Staphylococcus aureus ATCC 25923 after 24 hrs by microbroth dilution method; assay type: functional; settings: ATCC 25923, 24 h
Bacillus spizizenii = assay: Antimicrobial activity against Bacillus subtilis ATCC 6633 after 24 hrs by microbroth dilution method; assay type: functional; settings: ATCC 6633, 24 h
Micrococcus luteus = assay: Antimicrobial activity against Micrococcus luteus ATCC 4698 after 24 hrs by microbroth dilution method; assay type: functional; settings: ATCC 4698, 24 h
Escherichia coli [3] = assay: Antimicrobial activity against Escherichia coli DH52 after 24 hrs by microbroth dilution method; assay type: functional; settings: DH52, 24 h
Escherichia coli [4] = assay: Antimicrobial activity against Escherichia coli JM109 after 24 hrs by microbroth dilution method; assay type: functional; settings: JM109, 24 h
[5] = Antimicrobial activity against Bacillus proteus ATCC 13315 after 24 hrs by microbroth dilution method; assay type: functional; settings: ATCC 13315, 24 h
Salmonella typhi = assay: Antimicrobial activity against Bacillus typhi after 24 hrs by microbroth dilution method; assay type: functional, Salmonella enterica subsp. enterica serovar Typhi; settings: Salmonella enterica
Candida albicans = assay: Antimicrobial activity against Candida albicans ATCC 10231 after 24 hrs by microbroth dilution method; assay type: functional; settings: ATCC 10231, 24 h
Candida = assay: Antimicrobial activity against Candida mycoderma ATCC 9888 after 24 hrs by microbroth dilution method; assay type: functional; settings: ATCC 9888, 24 h
Saccharomyces cerevisiae = assay: Antimicrobial activity against Saccharomyces cerevisiae after 24 hrs by microbroth dilution method; assay type: functional
Aspergillus flavus = assay: Antimicrobial activity against Aspergillus flavus ATCC 204304 after 24 hrs by microbroth dilution method; assay type: functional; settings: ATCC 204304, 24 h
Bacillus = assay: Potency index, ratio of norfloxacin MIC to compound MIC for antimicrobial activity against Bacillus proteus ATCC 13315; assay type: functional

SMILES: O=c1[nH]c(=O)n(Cc2nc3ccccc3n2Cc2cccc(F)c2)cc1F
- MIC (Staphylococcus aureus [1]): 64 µg/mL (≈ 174 µM)
- MIC (Staphylococcus aureus [2]): 4 µg/mL (≈ 10.9 µM)
- MIC (Bacillus spizizenii): 8 µg/mL (≈ 21.7 µM)
- MIC (Micrococcus luteus): 16 µg/mL (≈ 43.4 µM)
- MIC (Escherichia coli [3]): 2 µg/mL (≈ 5.43 µM)
- MIC (Escherichia coli [4]): 64 µg/mL (≈ 174 µM)
- MIC [5]: 2 µg/mL (≈ 5.43 µM)
- MIC (Salmonella typhi): 128 µg/mL (≈ 348 µM)
- MIC (Candida albicans): 16 µg/mL (≈ 43.4 µM)
- MIC (Candida): 16 µg/mL (≈ 43.4 µM)
- MIC (Saccharomyces cerevisiae): 4 µg/mL (≈ 10.9 µM)
- MIC (Aspergillus flavus): 32 µg/mL (≈ 86.9 µM)
- Ratio (Bacillus): 4
